Reference: patent US5753631A, “Intercellular adhesion mediators” (Cytel Corporation, priority 1995, dated 1998)
pIC50: −log10 of the molar value. Like-named read-outs stand apart in the source and are kept apart here.

What was measured:
P-Selectin = molecular target: T1, P-Selectin (Homo sapiens, UniProt P16109); assay: Oligosaccharide/polysaccharide inhibition of neutrophil adhesion to thrombin activated platelets; assay type: cell-based; conditions: for IC50: Table 2, mean of three identical experiments, read-out: AMOUNT REQUIRED FOR 50% INHIBITION (converted)
T1 construct: endogenous in cells
T1 sequence (P16109 42-830): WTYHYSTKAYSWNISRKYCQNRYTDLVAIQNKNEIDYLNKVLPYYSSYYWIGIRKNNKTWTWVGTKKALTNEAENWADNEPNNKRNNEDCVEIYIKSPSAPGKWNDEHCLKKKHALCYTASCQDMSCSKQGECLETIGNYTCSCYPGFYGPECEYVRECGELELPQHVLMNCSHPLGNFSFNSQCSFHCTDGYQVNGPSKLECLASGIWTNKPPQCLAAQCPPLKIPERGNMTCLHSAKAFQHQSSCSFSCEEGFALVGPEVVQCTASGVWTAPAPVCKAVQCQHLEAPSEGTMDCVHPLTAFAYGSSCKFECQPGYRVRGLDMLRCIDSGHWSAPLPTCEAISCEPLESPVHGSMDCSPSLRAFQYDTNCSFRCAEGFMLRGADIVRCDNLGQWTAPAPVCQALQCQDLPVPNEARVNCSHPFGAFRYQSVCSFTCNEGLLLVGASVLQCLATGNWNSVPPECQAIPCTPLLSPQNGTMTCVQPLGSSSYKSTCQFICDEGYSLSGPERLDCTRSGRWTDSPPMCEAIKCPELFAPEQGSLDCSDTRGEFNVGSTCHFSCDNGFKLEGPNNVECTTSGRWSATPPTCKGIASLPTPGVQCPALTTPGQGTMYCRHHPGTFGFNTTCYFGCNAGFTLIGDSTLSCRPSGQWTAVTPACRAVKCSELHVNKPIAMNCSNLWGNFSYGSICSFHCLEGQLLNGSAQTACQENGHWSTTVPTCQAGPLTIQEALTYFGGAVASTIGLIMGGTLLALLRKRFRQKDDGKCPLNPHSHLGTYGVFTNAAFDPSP
Experimental: (§1) Briefly, platelets and neutrophils were isolated by the methods described above. Platelets were activated with thrombin and then incubated with dilutions of various oligosaccharides. Neutrophils were added, and the effect of the saccharides on the adhesion of neutrophils to activated platelets was determined.
1. Platelets were isolated as described above and were activated (2×10^8 /ml) by incubation for 20 min at room temperature with thrombin at a final concentration of 0.25 U/ml.
2. Neutrophils were isolated by layering heparinized blood over Mono-Poly Resolving Medium (Ficoll-Hypaque-Flow Laboratories), followed by centrifugation for 25 min at 2000 rpm and then, a further 25 min at 2500 rpm as described above.
3. For the assay, 20 μl of the platelet suspension (2×10^8 /ml) was placed in a microcentrifuge tube. An equal volume of the oligosaccharide preparations at concentrations from 200 μg/ml to 0.3 μg/ml, or of glycolipid-liposome preparations (prepared as described above), at concentrations from 2 μg/ml to 0.25 μg/ml, was added and the tubes were allowed to stand at room temperature for 20 min. Twenty μl of the neutrophil preparation (2×10^6 /ml) was then added and the tubes were allowed to stand for a further 20 min at room temperature.
(§2) 4. Adhesion of activated platelets to the neutrophils was assessed microscopically. One hundred neutrophils were evaluated. They were scored as positive if 2 or more platelets were attached and negative if less than 2 platelets were bound. The percent of cells with 2 or more bound platelets was calculated.
as §1, with “added” for “added,”
Platelets were isolated as described above and were activated (2×10^8 /ml) by incubation for 20 min at room temperature with thrombin at a final concentration of 0.25 U/ml.
Neutrophils were isolated by layering heparinized blood over Mono-Poly Resolving Medium (Ficoll-Hypaque, Flow Laboratories), followed by centrifugation for 25 min at […] and then, a further 25 min at 2500 rpm as described above.
For the assay, 20 μl of the platelet suspension (2×10^8 /ml) was placed in an Eppendorf centrifuge tube. An equal volume of the oligosaccharide preparations at concentrations from 500 μg/ml to 2.0 μg/ml was added and the tubes were allowed to stand at room temperature for 20 min. Twenty […] of the neutrophil preparation (2×10^6 /ml) was then added and the tubes were allowed to stand for a further 20 min at room temperature.
as §2, with “Adhesion” for “4. Adhesion”

[1] = test system: CVF-induced acute lung injury; assay: Cobra venom factor (CVF)-induced acute lung injury in the rat; assay type: in vivo; conditions: in words; prior to CVF, 30 minutes
Experimental: Groups of rats were pretreated with either vehicle, SLN-OH (0.6 mg/Kg), or with SLX-OH (0.6 mg/Kg) 5 minutes prior to administration of either CVF or PBS. Each bar represents the mean of 6 animals and vertical lines represent the standard error of the mean.
Groups of rats were pretreated with either vehicle or Z at the indicated doses 5 minutes prior to administration of CVF or PBS. Each point represents the mean of 6 animals and vertical lines represent the standard error of the mean.
The intravenous injection of CVF produces intravascular complement activation which results in lung injury, defined as an increase in neutrophil accumulation within the lung, an increase in pulmonary vascular permeability and in lung hemorrhage. It is likely that intravascular complement activation results in the generation of a wide range of inflammatory mediators. Of particular relevance to the studies described here is generation of the split fifth complement component, C5a, which can stimulate the release of histamine from circulating basophils and tissue mast cells. […] The expression of selectins, including P-selectin, is a necessary first step in the process of leukocyte adherence to vascular endothelium.
Animals were dosed with different oligosaccharide preparations or phosphate buffered saline (PBS) five minutes before administration of cobra venom factor (20 units/Kg, i.v.). Included in this material was an aliquot of ^125 I-bovine serum albumin (0.5 μCi) and ^51 Cr labelled autologous red blood cells (0.5 μCi) for measuring plasma extravasation and hemorrhage respectively. Thirty minutes after administration of the cobra venom factor the animals were anesthetized with ketamine hydrochloride (10 mg/Kg) and exsanguinated via the posterior vena cava. The lung vasculature was then perfused through the right cardiac ventricle with 10 mL of PBS. The lungs were removed and the amount of radioactivity remaining within the tissue assessed with a gamma scintillation counter. Increased pulmonary vascular permeability was measured as the ratio of ^125 I in lung tissue compared with the amount present in 1 mL of venous blood obtained at the time of death. Lung hemorrhage was measured as the ratio of ^51 Cr in lung tissue compared with the amount present in 1 mL of venous blood obtained at the time of death. Neutrophil accumulation in lungs was determined by measuring the myeloperoxidase activity of lungs homogenized in PBS. Myeloperoxidase activity in lung supernatants was assayed by measuring the change in absorbance at 460 nm resulting from decomposition of H2 O2 in the presence of o-dianisidine

[2] = test system: histamine induced leukocyte rolling in rat mesenteric venules; assay: Histamine induced leukocyte rolling and adherence in rat mesenteric venules (intravital microscopy); assay type: in vivo, rat (male Sprague-Dawley)
Experimental: Surgical procedure. Sixty-four male Sprague-Dawley rats (200-250 g) were maintained on a purified laboratory diet and fasted for 24 hours prior to the experiment. The animals were initially anesthetized with pentobarbital (65 mg/kg body weight), then a tracheotomy was performed to facilitate breathing during the experiment. The right carotid artery was cannulated and systemic arterial pressure was measured with a Statham (Oxnard, Calif.) P23A pressure transducer connected to the carotid artery cannula. Systemic blood pressure and heart rate were continuously recorded with a Grass physiologic recorder (Grass Instruments, Massachusetts). The left jugular vein was also cannulated for drug administration and blood sample collection. After a midline abdominal incision a segment of the mid-jejunum was exteriorized. All exposed tissue was moistened with saline-soaked gauze to minimize evaporation and dehydration.
Intravital microscopy. Rats were placed in a supine position on an adjustable plexiglass microscope stage and the mesentery was draped over an optically clear coverslip that allowed for observation of a 2 cm^2 segment of tissue. The temperature of the pedestal was maintained at 37° C. with a constant temperature circulator (Fisher Scientific, model 80). A small rubber gasket (area=3.14 cm^2) was placed on the mesentery and the outside area of contact between the gasket and mesentery was sealed (to prevent leakage of superfusate from the ring) with a mixture of high vacuum grease (Dow Corning Corp., Midland, Mich.) and white petrolatum (E. Fougera & Co., Melville, N.Y.). Rectal and mesenteric temperatures were continuously monitored using an electrothermometer. The exposed bowel wall was covered with Saran Wrap (Dow Chemical Co., Indiana), and the mesenteric tissue within the gasket was suffused with warmed bicarbonate-buffered saline (BBS; pH 7.4) that was bubbled with a mixture of 5% O2; 5% CO2; 90% N2.
An inverted microscope (Nikon Optiphoto, Japan) with a ×40 objective lens (Nikon Optiphoto, Japan) and a ×10 eyepiece was used to observe the mesenteric microcirculation. The mesentery was transilluminated with a 12 V-100 W direct current-stabilized light source. A video camera (Hitachi, VK-C150, Japan) mounted on the microscope projected the image onto a color monitor (Sony, PVM-2030, Japan), and the images were recorded using a video cassette recorder (Panasonic, NV8950, Japan). A video time-date generator (Panasonic, WJ810, Japan) projected the time, date, and stopwatch function onto the monitor.
Single unbranched venules with diameters ranging between 25 μm and 35 μm and a length>150 μm were selected for study. Venular diameter (Dv) was measured either on- or off-line using a video image-shearing monitor (IPM, La Mesa, Calif.). The number of adherent leukocytes was determined off-line during playback of videotaped images. A leukocyte was considered to be adherent to venular endothelium if it remained stationary for a period equal to or greater than 30 seconds. Adherent cells were expressed as the number per 100 μm length of venule. The number of emigrated leukocytes was also determined off-line during playback of videotaped images. Ary interstitial leukocytes present in the mesentery at the onset of the experiment were subtracted from the total number of leukocytes that accumulated during the course of the experiment. Leukocyte emigration was expressed as the number per microscopic field (1.7×10^-2 mm^2) or 150 μm length of venule. Rolling leukocytes were defined as those white blood cells that moved at a velocity less than that of erythrocytes in the same stream. The flux of rolling leukocytes was determined as the number of rolling leukocytes which crossed a fixed point on the venule over a given period of time. Leukocyte rolling velocity was determined from the time required for a leukocyte to roll along a given distance of the venule.

Question: Which IC50 (P-Selectin) does the source give for `CC(=O)N[C@H]1C(O)O[C@H](CO)[C@@H](O[C@@H]2O[C@H](CO)[C@H](O)[C@H](O)[C@H]2O)[C@@H]1O[C@@H]1O[C@@H](C)[C@@H](O)[C@@H](O)[C@@H]1O` (some centres unmarked) [Le^x, reference compound] here?
Answer: 43 µM

Question: How did the pIC50 (P-Selectin; read-out: AMOUNT REQUIRED FOR 50% INHIBITION, Table 6) turn out when `CC(=O)N[C@H]1[C@H](O[C@H]2[C@@H](O)[C@@H](CO)O[C@@H](O[C@H]3[C@H](O)[C@@H](O)C(OCC[Si](C)(C)C)O[C@@H]3CO)[C@@H]2O)O[C@H](CO)[C@@H](O[C@@H]2O[C@H](CO)[C@H](O)[C@H](O[C@]3(C(=O)O)C[C@H](O)[C@@H](NC(C)=O)[C@H]([C@H](O)[C@H](O)CO)O3)[C@H]2O)[C@@H]1O[C@@H]1O[C@@H](C)[C@@H](O)[C@@H](O)[C@@H]1O` (some centres unmarked) [SLe^x Hexasaccharide] was run?
Answer: 5.19

Question: And the pIC50 (P-Selectin; read-out: amount for 50% inhibition of P-Selectin mediated binding of neutrophils to thrombin activated platelets, Table 6)?
Answer: 5.19

Question: How did the “AMOUNT REQUIRED FOR 50% INHIBITION” value (P-Selectin; Table 6) turn out when `CC(=O)N[C@H]1[C@H](O[C@H]2[C@@H](O)[C@@H](CO)O[C@@H](O[C@H]3[C@H](O)[C@@H](O)C(O)O[C@@H]3CO)[C@@H]2O)O[C@H](CO)[C@@H](O)[C@@H]1O[C@@H]1O[C@H](CO)[C@H](O)[C@H](O)[C@H]1O[C@@H]1O[C@@H](C)[C@@H](O)[C@@H](O)[C@@H]1O` (some centres unmarked) [LNF I, reference compound] was run?
Answer: No Inhibition

Question: `CC(=O)N[C@H]1[C@H]([C@H](O)[C@H](O)CO)O[C@@](O[C@H]2[C@@H](O)[C@@H](CO)O[C@@H](O[C@H]3[C@H](O[C@@H]4O[C@@H](C)[C@@H](O)[C@@H](O)[C@@H]4O)[C@@H](NC(C)=O)C(O)O[C@@H]3CO)[C@@H]2O)(C(=O)O)C[C@@H]1O` (some centres unmarked) [SLe^x (tetra), NeuAcα2,3Galβ1,4 (Fucα1,3)GlcNAc] was tested. Which IC50 (P-Selectin) did it give?
Answer: 54 µM

Question: What about the “times more required for 50% inhibition than of the SLe^x-hexasaccharide” value (P-Selectin; tetrasaccharide versus hexasaccharide) of the same compound?
Answer: approximately 20 times

Question: Which “effect on CVF-induced permeability, hemorrhage, MPO / lung injury” value [1] does the source give for `CC(=O)N[C@H]1[C@H]([C@H](O)[C@H](O)CO)O[C@@](O[C@H]2[C@@H](O)[C@@H](CO)O[C@@H](O[C@H]3[C@H](O)[C@@H](NC(C)=O)C(O)O[C@@H]3CO)[C@@H]2O)(C(=O)O)C[C@@H]1O` (some centres unmarked) [SLN-OH, sialyl-N-acetyllactosamine, reference compound] here?
Answer: unaltered

Question: `NCCc1c[nH]cn1` [histamine] was tested. Which Erythrocyte velocity ([2]; histamine 10^-5 M) did it give?
Answer: 1.8 ± 0.4 mm/sec

Question: And the Leukocyte adherence ([2]; histamine 10^-5 M)?
Answer: 7.2 ± 1.1 per 100 μm

Question: What about the Leukocyte emigration ([2]; histamine 10^-5 M) of the same compound?
Answer: 2.5 ± 0.9 per field

Question: And the Venular diameter ([2]; histamine 10^-5 M)?
Answer: 30 ± 1 μm

Question: And the Wall shear rate ([2]; histamine 10^-5 M)?
Answer: 303 ± 64 s⁻¹

Question: And the “number of rolling leukocytes, fold increase” value ([2]; histamine 10^-5 M)?
Answer: 10 -fold

Question: What about the “recruitment of rolling leukocytes, fold increase” value ([2]; histamine 10^-5 M) of the same compound?
Answer: 5 -fold

Question: And the “reduction of leukocyte rolling velocity” value ([2]; histamine 10^-5 M)?
Answer: 50%

Question: And the Erythrocyte velocity ([2]; histamine 10^-6 M)?
Answer: 2.4 ± 0.2 mm/sec

Question: What about the Leukocyte adherence ([2]; histamine 10^-6 M) of the same compound?
Answer: 4.8 ± 0.7 per 100 μm

Question: And the Leukocyte emigration ([2]; histamine 10^-6 M)?
Answer: 2.0 ± 0.7 per field

Question: And the Venular diameter ([2]; histamine 10^-6 M)?
Answer: 30 ± 1 μm

Question: What about the Wall shear rate ([2]; histamine 10^-6 M) of the same compound?
Answer: 401 ± 91 s⁻¹

Question: And the “effect on number of adherent leukocytes” value ([2]; histamine 10^-6 M and 10^-5 M)?
Answer: Significant increases in the number of adherent leukocytes

Question: And the Erythrocyte velocity ([2]; histamine 10^-7 M)?
Answer: 2.8 ± 0.2 mm/sec

Question: What about the Leukocyte adherence ([2]; histamine 10^-7 M) of the same compound?
Answer: 2.8 ± 0.7 per 100 μm

Question: And the Leukocyte emigration ([2]; histamine 10^-7 M)?
Answer: 1.5 ± 0.7 per field

Question: And the Venular diameter ([2]; histamine 10^-7 M)?
Answer: 30 ± 1 μm

Question: And the Wall shear rate ([2]; histamine 10^-7 M)?
Answer: 476 ± 38 s⁻¹
